Source: the NIST ThermoML archive (doi:10.1021/je5002686)
Where “and” joins values, the source holds several entries; their conditions need not be identical. Equal values may be shown once.

Conditions: Liquid, Vibrating tube method

CCOC(F)(C(F)(F)C(F)(F)C(F)(F)F)C(F)(C(F)(F)F)C(F)(F)F (stereo not given) [2-trifluoromethyl-3-ethoxydodecafluorohexane]
Conditions | mass density
350 K, 40000 kPa | 1622.9 kg/m3 and 1622.8 kg/m3
350 K, 40010 kPa | 1622.7 kg/m3
350 K, 44990 kPa | 1632.7 kg/m3 and 1632.5 kg/m3
350 K, 45000 kPa | 1632.5 kg/m3
350 K, 49990 kPa | 1641.9 kg/m3 and 1641.7 kg/m3
350 K, 50000 kPa | 1641.8 kg/m3
370 K, 490 kPa | 1465.7 kg/m3 and 1465.9 kg/m3
370 K, 500 kPa | 1466 kg/m3
370 K, 1000 kPa | 1468.6 kg/m3 and 1468.4 kg/m3 and 1468.5 kg/m3
370 K, 1990 kPa | 1473.6 kg/m3 and 1473.5 kg/m3
370 K, 2000 kPa | 1473.4 kg/m3
370 K, 2990 kPa | 1478.5 kg/m3
370 K, 3000 kPa | 1478.2 kg/m3 and 1478.5 kg/m3
370 K, 3990 kPa | 1483.1 kg/m3
370 K, 4000 kPa | 1483.1 kg/m3 and 1483 kg/m3
370 K, 4990 kPa | 1487.6 kg/m3
370 K, 5000 kPa | 1487.5 kg/m3 and 1487.6 kg/m3
370 K, 10000 kPa | 1508.2 kg/m3 and 1507.9 kg/m3 and 1508.1 kg/m3
370 K, 14990 kPa | 1526 kg/m3 and 1525.8 kg/m3
370 K, 19990 kPa | 1541.7 kg/m3 and 1541.8 kg/m3
370 K, 20000 kPa | 1541.9 kg/m3
370 K, 25000 kPa | 1556.3 kg/m3 and 1556.1 kg/m3 and 1556.2 kg/m3
370 K, 30000 kPa | 1569.5 kg/m3 and 1569.2 kg/m3 and 1569.4 kg/m3
370 K, 34990 kPa | 1581.5 kg/m3
370 K, 35000 kPa | 1581.7 kg/m3 and 1581.4 kg/m3
370 K, 40000 kPa | 1593 kg/m3 and 1592.7 kg/m3 and 1592.8 kg/m3
370 K, 45000 kPa | 1603.6 kg/m3 and 1603.3 kg/m3 and 1603.4 kg/m3
370 K, 49990 kPa | 1613.2 kg/m3 and 1613.4 kg/m3
370 K, 50020 kPa | 1613.6 kg/m3
390 K, 490 kPa | 1417.9 kg/m3
390 K, 500 kPa | 1417.8 kg/m3 and 1417.7 kg/m3
390 K, 990 kPa | 1420.9 kg/m3 and 1421.1 kg/m3
390 K, 1000 kPa | 1421.1 kg/m3
390 K, 1990 kPa | 1427.2 kg/m3 and 1427.4 kg/m3
390 K, 2000 kPa | 1427.1 kg/m3
390 K, 3000 kPa | 1433.2 kg/m3 and 1433.1 kg/m3
390 K, 3010 kPa | 1433.3 kg/m3
390 K, 3990 kPa | 1438.8 kg/m3 and 1438.7 kg/m3 and 1438.9 kg/m3
390 K, 5000 kPa | 1444.3 kg/m3 and 1444.1 kg/m3 and 1444.4 kg/m3
390 K, 10000 kPa | 1468.4 kg/m3 and 1468.3 kg/m3 and 1468.5 kg/m3
390 K, 14990 kPa | 1488.9 kg/m3 and 1489 kg/m3
390 K, 15000 kPa | 1488.9 kg/m3
390 K, 19990 kPa | 1506.8 kg/m3 and 1507 kg/m3
390 K, 20000 kPa | 1507 kg/m3
390 K, 25000 kPa | 1523 kg/m3 and 1522.9 kg/m3 and 1523.1 kg/m3
390 K, 29990 kPa | 1537.6 kg/m3
390 K, 30000 kPa | 1537.6 kg/m3 and 1537.4 kg/m3
390 K, 35000 kPa | 1550.9 kg/m3 and 1550.8 kg/m3 and 1551 kg/m3
390 K, 40000 kPa | 1563.2 kg/m3 and 1563.1 kg/m3 and 1563.3 kg/m3
390 K, 44990 kPa | 1574.8 kg/m3
390 K, 45000 kPa | 1574.7 kg/m3 and 1574.6 kg/m3
390 K, 49980 kPa | 1585.3 kg/m3
390 K, 49990 kPa | 1585.5 kg/m3
410 K, 990 kPa | 1370.5 kg/m3
410 K, 3990 kPa | 1392.5 kg/m3
410 K, 4000 kPa | 1392.7 kg/m3
410 K, 4990 kPa | 1399.3 kg/m3
410 K, 10000 kPa | 1427.9 kg/m3
410 K, 15000 kPa | 1451.6 kg/m3 and 1451.5 kg/m3
410 K, 19990 kPa | 1471.8 kg/m3
410 K, 20000 kPa | 1472 kg/m3
410 K, 24990 kPa | 1489.9 kg/m3 and 1489.7 kg/m3
410 K, 29990 kPa | 1506 kg/m3
410 K, 30000 kPa | 1505.8 kg/m3
410 K, 34990 kPa | 1520.6 kg/m3
410 K, 35000 kPa | 1520.5 kg/m3
410 K, 40000 kPa | 1534 kg/m3 and 1533.9 kg/m3
410 K, 45000 kPa | 1546.4 kg/m3
410 K, 45010 kPa | 1546.3 kg/m3
410 K, 50000 kPa | 1558 kg/m3
410 K, 50020 kPa | 1557.9 kg/m3
430 K, 500 kPa | 1310.6 kg/m3 and 1310.4 kg/m3
430 K, 1000 kPa | 1316.1 kg/m3 and 1315.9 kg/m3 and 1316.2 kg/m3
430 K, 2000 kPa | 1326.2 kg/m3 and 1326 kg/m3 and 1326.3 kg/m3
430 K, 3000 kPa | 1335.6 kg/m3 and 1335.4 kg/m3 and 1335.7 kg/m3
430 K, 4000 kPa | 1344.3 kg/m3 and 1344.1 kg/m3
430 K, 4990 kPa | 1352.1 kg/m3 and 1352.4 kg/m3
430 K, 5000 kPa | 1352.4 kg/m3
430 K, 9990 kPa | 1386.6 kg/m3 and 1386.4 kg/m3
430 K, 14990 kPa | 1413.9 kg/m3
430 K, 15000 kPa | 1413.8 kg/m3 and 1414 kg/m3
430 K, 19990 kPa | 1436.8 kg/m3 and 1437 kg/m3
430 K, 20000 kPa | 1436.9 kg/m3
430 K, 24990 kPa | 1456.9 kg/m3
430 K, 25000 kPa | 1456.9 kg/m3 and 1456.8 kg/m3
430 K, 29990 kPa | 1474.6 kg/m3
430 K, 30000 kPa | 1474.7 kg/m3
430 K, 30010 kPa | 1474.5 kg/m3
430 K, 34990 kPa | 1490.4 kg/m3
430 K, 35000 kPa | 1490.6 kg/m3
430 K, 40000 kPa | 1505.2 kg/m3 and 1505 kg/m3
430 K, 40010 kPa | 1505.2 kg/m3
430 K, 45000 kPa | 1518.6 kg/m3 and 1518.4 kg/m3
430 K, 49960 kPa | 1530.9 kg/m3
430 K, 49990 kPa | 1531 kg/m3
430 K, 50000 kPa | 1530.9 kg/m3
450 K, 1990 kPa | 1269.4 kg/m3
450 K, 3980 kPa | 1292.6 kg/m3
450 K, 4000 kPa | 1292.9 kg/m3
450 K, 4990 kPa | 1302.9 kg/m3 and 1303 kg/m3
450 K, 10000 kPa | 1344.2 kg/m3 and 1344.1 kg/m3 and 1344.3 kg/m3
450 K, 14980 kPa | 1375.6 kg/m3
450 K, 14990 kPa | 1375.9 kg/m3
450 K, 15000 kPa | 1375.9 kg/m3
450 K, 19990 kPa | 1401.9 kg/m3 and 1401.7 kg/m3
450 K, 25000 kPa | 1424.1 kg/m3 and 1424 kg/m3
450 K, 29990 kPa | 1443.6 kg/m3 and 1443.4 kg/m3
450 K, 30000 kPa | 1443.6 kg/m3
450 K, 34990 kPa | 1460.8 kg/m3 and 1461 kg/m3
450 K, 35000 kPa | 1461 kg/m3
450 K, 39990 kPa | 1476.8 kg/m3
450 K, 40000 kPa | 1476.6 kg/m3 and 1476.8 kg/m3
450 K, 45000 kPa | 1491.2 kg/m3 and 1491.1 kg/m3
450 K, 49980 kPa | 1504.5 kg/m3
450 K, 49990 kPa | 1504.5 kg/m3
450 K, 50000 kPa | 1504.4 kg/m3
470 K, 5010 kPa | 1250.5 kg/m3
470 K, 9990 kPa | 1300.6 kg/m3 and 1300.8 kg/m3
470 K, 10010 kPa | 1300.7 kg/m3
470 K, 14990 kPa | 1337.3 kg/m3
470 K, 15000 kPa | 1337.3 kg/m3 and 1337.5 kg/m3
470 K, 19990 kPa | 1366.6 kg/m3
470 K, 20000 kPa | 1366.7 kg/m3 and 1366.9 kg/m3
470 K, 25000 kPa | 1391.4 kg/m3 and 1391.3 kg/m3 and 1391.5 kg/m3
470 K, 29990 kPa | 1412.7 kg/m3
470 K, 30000 kPa | 1412.8 kg/m3 and 1412.9 kg/m3
470 K, 34990 kPa | 1431.7 kg/m3 and 1431.8 kg/m3
470 K, 35010 kPa | 1431.7 kg/m3
470 K, 39990 kPa | 1448.8 kg/m3
470 K, 40000 kPa | 1448.7 kg/m3
470 K, 44990 kPa | 1464.2 kg/m3 and 1464.1 kg/m3
470 K, 45000 kPa | 1464.3 kg/m3
470 K, 49990 kPa | 1478.4 kg/m3
470 K, 50000 kPa | 1478.6 kg/m3
470 K, 50010 kPa | 1478.5 kg/m3
